Measured values as given in US20250375417A1, “OREXIN RECEPTOR 2 (OX2R) AGONIST FOR USE IN NARCOLEPSY TYPE 1 (NT1)” (TAKEDA PHARMACEUTICAL COMPANY LIMITED, priority 2024, published 2025).

Columns and labels:
Format in all cases: in vivo, human
participants with NT1 [1] = assay: Daily sleep diaries (disturbing dreams), Phase 2 NT1 trial
From the text: Polysomnography (PSG) was collected at baseline and after 27 and 54 days of treatment. Sleep was manually scored following AASM guidelines; sleep metrics were extracted then computed by whole night and by quarter-night. Continuous accelerometry (Empatica EmbracePlus watch) allowed assessment of sleep in a naturalistic manner at home. Daily sleep diaries were used to capture subjective reports. Mixed effects models were fit with treatment, quarter-night, visit, and their interactions as fixed effects and random intercepts per subject. A reference PSG dataset (Vilela M, et al. J Sleep Res 2024; e14216) from CHU Montpellier (49 clinical controls and 114 patients with NT1, all drug-free) was analyzed to establish DNS characteristics of NT1.
At baseline, participants reported disturbing dreams, which contribute to DNS, an average of 2.8 nights/week (no significant differences across cohorts) in response to “Did you have disturbing dreams, nightmares, or frightening dreams during the night?” These reductions potentially relate to improvements in REM regulation with Compound A.

participants with NT1 [2] = assay: Clinical and Patient Global Impression (CGI, PGI), Phase 2 NT1 trial; conditions: Week 8, patients treated with Compound A
From the text: The Patient Global Impression Scale-Severity Scale (PGI-S) provides a participant-perceived assessment of overall symptoms (4-point Likert-type scale, “normal to “severe”) administered at baseline while the Patient Global Impression-Improvement Scale (PGI-I) provides a participant-perceived summary of global treatment effect on daytime sleepiness and cataplexy (7-point Likert-type scale, “very much improved” to “very much worse”) administered at different points during treatment.
The Clinical Global Impression Scale provides an overall clinician-determined summary measure of a participant's treatment experience that takes into account all available information, including knowledge of the participant's history, psychosocial circumstances, symptoms, behavior, and the impact of the symptoms on the participant's ability to function. The assessment consists of various subscales. One is the Clinical Global Impression-Severity (CGI-S). The CGI-S assesses the severity of overall narcolepsy symptoms. It uses a 7-point Likert-type scale ranging from “normal, not at all ill” to “among the most extremely ill patients.”
Another subscale is the Clinical Global Impression-Improvement (CGI-I), which assesses improvement of symptoms. The CGI-I asks clinicians to rate the extent to which their patients' current overall narcolepsy symptoms are improved (compared with the start of the study). […]

participants with NT1 [3] = assay: Safety and tolerability (TEAEs), Phase 2 NT1 trial
From the text: Standard safety endpoints (e,g., treatment […] adverse events (TEAEs), physical examination findings, vital signs, 12-lead ECG measures, clinical laboratory results) for early clinical investigation were included. Further, because cardiovascular effects have been noted in nonclinical models with Compound A and OX2R agonists in general, and these effects are thought to be on-target effects, close monitoring of cardiovascular parameters, including time-matched BP measurements before and after dosing to detect any changes and potential tolerance in BP after the administration of repeat doses to participants with NT1 were included. Ambulatory blood pressure monitoring (ABPM) was also obtained to assess BP in the outpatient setting in a rigorous manner.
In addition, because liver function test (LFT) elevation cases have been observed in another OX2R agonist with structural similarity, LFTs (ALT, AST, GGT, and total bilirubin) were closely monitored.
The following doses were studied: • Compound A Dose Regimen 1:0.5 mg twice daily approximately 3 hours apart. • Compound A Dose Regimen 2:2 mg twice daily approximately 3 hours apart. • Compound A Dose Regimen 3:2 mg followed by 5 mg approximately 3 hours apart. • Compound A Dose Regimen 4:7 mg once daily (QD). • Other products required for the study: Matching placebo.
Endpoints included change from baseline to Week 8 in mean sleep onset latency on the Maintenance of Wakefulness Test (SOL-MWT; primary endpoint), ESS total score, weekly cataplexy rate (WCR), and occurrence of treatment-emergent adverse events (TEAEs).

participants with NT1 [4] = assay: Exit interviews after Week 8, Phase 2 NT1 trial; conditions: most Compound A participants (n=21)
Experimental: Treatment Satisfaction Questionnaire for Medication (TSQM) and exit interview results from the study were evaluated to explore the impact of Compound A treatment on individuals with ICSD-3-confirmed NT1. Participants aged 18-70 years, with an Epworth Sleepiness Scale (ESS) score>12, and ≥4 partial/complete episodes of cataplexy/week were included in the trial. Participants were randomized to oral Compound A (0.5 mg twice 3 hours apart, 2 mg twice 3 hours apart, 2 mg then 5 mg 3 hours later, or 7 mg once daily), or placebo.
FIG. 19 and FIG. 20 show the results of exit interview outcomes at Week 8. […] Symptoms rated as most important to improve from baseline were EDS, cataplexy and impaired cognitive function (FIG. 19); most frequently cited impacts were work/school-related, social/leisure activities and general quality of life (FIG. 20). Changes in impacts were meaningful for Compound A-treated participants but not for placebo-treated participants. Overall, 94.7% of Compound A-treated participants (18/19 respondents) would be willing to recommend Compound A to others with narcolepsy.

[5] = Compound A-treated participants

CCS(=O)(=O)N[C@@H]1[C@H](Cc2cccc(-c3cc(F)cc(F)c3)c2F)N(C(=O)C(C)(C)O)CC1(F)F [Compound A, N-{(2S,3R)-4,4-difluoro-1-(2-hydroxy-2-methylpropanoyl)-2-[(2,3′,5′-trifluoro[1,1′-biphenyl]-3-yl)methyl]pyrrolidin-3-yl}ethanesulfonamide]
Rate of disturbing dreams, average estimated change from baseline (participants with NT1 [1]; across all treated cohorts and weeks): −1.5 nights/week
Rate of disturbing dreams, range of estimated change from baseline (participants with NT1 [1]; range across all treated cohorts and weeks): −1.8 to −0.8 nights/week
Patients much/very much improved on the PGI and CGI (participants with NT1 [2]): > 70%
Adverse events of mild to moderate insomnia, participants (participants with NT1 [3]; [5]): 48%
Time to resolution of most insomnia adverse events (participants with NT1 [3]; [5]): ≤ 1 week
Most common TEAEs (participants with NT1 [3]; Phase 2): urinary urgency/frequency and insomnia
Hepatotoxicity or visual disturbances (participants with NT1 [3]; Phase 2, 8 weeks): No cases of hepatotoxicity or visual disturbances were reported
Tolerability (participants with NT1 [3]; Phase 2, 8 weeks): generally well tolerated
Occurrence of TEAEs (participants with NT1 [3]; all Compound A doses (70/90 patients), 8 weeks): 77.8%
Treatment-related serious TEAEs or discontinuations due to TEAEs (participants with NT1 [3]; during the study): No treatment-related serious TEAEs or discontinuations due to TEAEs occurred
Exit interview outcome: change in narcolepsy symptoms and functional impacts (participants with NT1 [4]): meaningful improvements in narcolepsy symptoms and functional impacts
